For data set [1], the system named is K562 cells. The data set can be described thus: RT-qPCR quantification of gene expression in K562 cells. Format: cell-based, human. To be noted: 200 nM, CPI-0610 reapplied daily, PLX51107 once at day 0. As for the experimental part: (§1) K562, HEL, and HL-60 cells were cultured in RPMI 1640 medium supplemented with 10% FBS. TF-1 cells were cultured in RPMI 1640 medium supplemented with 10% FBS and 4 ng/mL GM-CSF. Before treatment, TF-1 cells were washed 4× with RPMI 1640 without supplements, and cultured in RPMI 1640 medium with 10% FBS but no GM-CSF for 24 hours. 4 ng/mL GM-CSF or 3 units/mL EPO were added at the time of treatment set up. K562, HEL, and HL-60 cells were cultured as normal until treatment set up. JQ1 (Sigma-Aldrich, SML1524), CPI-0610 (Selleck Chemicals, S7853), and PLX51107 (MedChemExpress, HY-111422) were dissolved in DMSO to 10 mM concentration and stored in −80° C. All three inhibitors were applied to cells at 200 nM, with parallel DMSO treatment (0.002%) as control. JQ1 and PLX51107 were added to cell culture at day 0 without additional treatments up to day 5. CPI-0610 was reapplied to the cells on a daily basis.
(§2) cDNA libraries for mRNAs were made from 1 μg input RNA using High-Capacity cDNA Reverse Transcription Kit (ThermoFisher, 4368814). Gene expressions were quantified using Power SYBR Green PCR Master Mix (Thermofisher, 4367659). For microRNAs, cDNA libraries were made with Taqman Advanced miRNA cDNA Synthesis Kit (Thermofisher, A28007). miR-15A and miR-16-1 were quantified using the Taqman Advanced miRNA Assays (ThermoFisher, A25576) specific to hsa-miR-15a-5p (assay ID: 477858_mir) and hsa-miR-16-5p (assay ID: 477860_mir).
(In general: Real-time PCR tracks product formation cycle by cycle.)

Data set [2] has as its system TF-1 cells. Description: RT-qPCR quantification of gene expression in TF-1 cells. Format: cell-based, human. To be noted: 200 nM; for HBB, HBG1/2 and HBE1 expression compared with JQ1: TF-1 cells, CPI-0610 reapplied daily, PLX51107 once at day 0. The protocol:
as §1, §2

Data set [3] deals with BET proteins. The settings on record: cited from earlier work; for Bromodomain preference (BD1 vs BD2): BET proteins; for Affinity among BET family members: BRD2/BRD3/BRD4/BRDT, literature refs 17, 18.
Data set [4] in a line: Lifespan in culture medium. Format: physicochemical.

Consider `Cc1noc(C)c1-c1cnc2c(-c3ccc(C(=O)O)cc3)cn([C@@H](C)c3ccccn3)c2c1` [PLX51107], for which the “HBB, HBG1/2 and HBE1 expression compared with JQ1” value (“HBB … compared with JQ1” below) in data set [1] and in data set [2] was “mimic the effects of JQ1” each time. In addition, in data set [2] (TF-1 cells under proliferative condition), the HBB expression entry is “significantly suppressed”. The “Bromodomain preference (BD1 vs BD2)” value in data set [3] is on record as “preferentially binds to BD1”. The “Affinity among BET family members” value in data set [3] is listed as “somewhat lower affinity for BRDT”.
In the case of `Cc1noc2c1-c1ccccc1C(c1ccc(Cl)cc1)=N[C@H]2CC(N)=O` [CPI-0610], in data set [1], the “HBB … compared with JQ1” value is reported as “mimic the effects of JQ1”. Further, in data set [2], the “HBB … compared with JQ1” value is “mimic the effects of JQ1”. In addition, the “Lifespan in culture medium” value in data set [4] is on record as “short lifespan”. Moreover, in data set [3], the “Bromodomain preference (BD1 vs BD2)” value is “preference for the second bromodomain (BD2)” and the “Affinity among BET family members” value was “comparable affinity”.
